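Cells were grown in 96-well plates and exposed to each compound for 48 hours at five concentrations; endpoints were interpolated linearly between bracketing concentrations, or set to the highest concentration if not reached. GI50 = concentration required for 50% inhibition of growth.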 The source made the active and inactive calls. Rule as the data show it: active = GI50 up to about 1.1 µM and inactive = higher.
What was measured:
Experiment in all cases: NCI tumour cell line growth inhibition, 48 h
SK-OV-3 = tested on: SK-OV-3
SK-MEL-5 = tested on: SK-MEL-5
A498 = tested on: A498
OVCAR-8 = tested on: OVCAR-8
EKVX = tested on: EKVX
HCC 2998 = tested on: HCC 2998
KM-20L2 = tested on: KM-20L2
M14 = tested on: M14
COLO 205 = tested on: COLO 205
K562 = tested on: K562
LOX IMVI = tested on: LOX IMVI
HOP-62 = tested on: HOP-62
SF-539 = tested on: SF-539
RXF 393 = tested on: RXF 393
TK-10 = tested on: TK-10
IGROV-1 = tested on: IGROV-1
NCI-H522 = tested on: NCI-H522
KM12 = tested on: KM12
SF-295 = tested on: SF-295
OVCAR-3 = tested on: OVCAR-3

Measured: GI50

O=C(c1ccccc1)c1ccc2c(c1)N=C(c1ccc(Cl)c(Cl)c1)CC(c1ccc3ccccc3c1)N2 (centres undefined)
inactive: SK-OV-3 > 100 µM | SK-MEL-5 > 100 µM | A498 > 100 µM | OVCAR-8 > 100 µM | EKVX > 100 µM | HCC 2998 > 100 µM | KM-20L2 > 100 µM | M14 > 100 µM | COLO 205 > 100 µM | K562 > 100 µM | LOX IMVI > 100 µM | HOP-62 > 100 µM | SF-539 > 100 µM | RXF 393 > 100 µM | TK-10 > 100 µM | IGROV-1 > 100 µM | NCI-H522 > 100 µM | KM12 > 100 µM | SF-295 > 100 µM

O=CNc1cccc2c3c([nH]c12)CCCCCC3
inactive: SK-OV-3 > 100 µM | SK-MEL-5 97.5 µM | A498 76.6 µM | OVCAR-8 > 100 µM | EKVX > 100 µM | HCC 2998 > 100 µM | KM-20L2 > 100 µM | COLO 205 > 100 µM | K562 67.9 µM | LOX IMVI > 100 µM | HOP-62 > 100 µM | SF-539 > 100 µM | RXF 393 > 75.7 µM | IGROV-1 83.2 µM | NCI-H522 > 67.1 µM | KM12 > 100 µM | SF-295 > 62.4 µM | OVCAR-3 > 100 µM

O[C@H]1[C@H](O)[C@@H](O)CN2CC[C@H](O)[C@H]12 [CASTANOSPERMINE]
inactive: SK-OV-3 > 100 µM | SK-MEL-5 > 100 µM | A498 > 100 µM | OVCAR-8 > 100 µM | EKVX > 100 µM | HCC 2998 > 95.5 µM | KM-20L2 > 100 µM | COLO 205 > 100 µM | K562 > 100 µM | LOX IMVI > 100 µM | HOP-62 > 100 µM | SF-539 > 100 µM | RXF 393 > 100 µM | IGROV-1 > 100 µM | NCI-H522 > 100 µM | KM12 > 100 µM | SF-295 > 100 µM | OVCAR-3 > 100 µM

Cn1c(-c2ccccc2)cc(-c2cccs2)c1-c1cccs1
inactive: SK-OV-3 > 100 µM | SK-MEL-5 45.3 µM | A498 > 100 µM | OVCAR-8 > 100 µM | EKVX 34.2 µM | HCC 2998 49.5 µM | KM-20L2 47.2 µM | COLO 205 82.6 µM | K562 51.6 µM | LOX IMVI 52 µM | HOP-62 > 81.3 µM | SF-539 > 100 µM | RXF 393 > 81.3 µM | IGROV-1 > 100 µM | NCI-H522 > 64.6 µM | KM12 22.3 µM | SF-295 > 100 µM | OVCAR-3 > 100 µM

CCCCNC(=O)C1C(=O)N(CCCC)C(=O)/C1=N\N (centres undefined)
inactive: SK-OV-3 > 100 µM | SK-MEL-5 > 100 µM | A498 > 100 µM | OVCAR-8 > 100 µM | EKVX > 100 µM | HCC 2998 > 100 µM | KM-20L2 > 100 µM | M14 > 100 µM | COLO 205 > 100 µM | K562 > 100 µM | LOX IMVI > 100 µM | HOP-62 > 100 µM | SF-539 > 100 µM | RXF 393 > 100 µM | TK-10 > 100 µM | IGROV-1 > 100 µM | NCI-H522 > 100 µM | KM12 > 100 µM | SF-295 > 100 µM | OVCAR-3 > 100 µM

CN(C)CCNCc1c2ccccc2c(CNCCN(C)C)c2ccccc12
inactive: SK-OV-3 16.9 µM | SK-MEL-5 12.8 µM | A498 27.1 µM | OVCAR-8 31.6 µM | EKVX 65.8 µM | HCC 2998 10.7 µM | KM-20L2 7.29 µM | COLO 205 9.53 µM | K562 17.8 µM | LOX IMVI 18.1 µM | HOP-62 18 µM | SF-539 28.2 µM | RXF 393 20.6 µM | IGROV-1 26.6 µM | NCI-H522 31 µM | KM12 39.4 µM | SF-295 49.2 µM | OVCAR-3 37.5 µM

CCN1CC2(CO)CCC(OC)C34C5CC6C(OC)CC(O)(C5C6OC)C(O)(C(OC)C23)C14 (centres undefined)
inactive: SK-OV-3 > 375 µM | SK-MEL-5 > 211 µM | A498 > 375 µM | OVCAR-8 > 375 µM | EKVX > 59.4 µM | HCC 2998 > 375 µM | KM-20L2 > 197 µM | COLO 205 > 375 µM | K562 > 375 µM | LOX IMVI > 375 µM | HOP-62 > 375 µM | SF-539 > 375 µM | RXF 393 > 375 µM | IGROV-1 > 375 µM | NCI-H522 > 375 µM | KM12 > 375 µM | SF-295 > 375 µM | OVCAR-3 > 174 µM

— ChEMBL document CHEMBL1201862, “PubChem BioAssay data set” (2004)
